# Experimental data published in ChEMBL document CHEMBL1145376, “C-8 Modifications of 3-alkyl-1,8-dibenzylxanthines as inhibitors of human cytosolic phosphoenolpyruvate carboxykinase” (Bioorg Med Chem Lett, 2007).
# Target: T1, Phosphoenolpyruvate carboxykinase, cytosolic [GTP] (Homo sapiens, UniProt P35558)
# T1 sequence (P35558 whole entry): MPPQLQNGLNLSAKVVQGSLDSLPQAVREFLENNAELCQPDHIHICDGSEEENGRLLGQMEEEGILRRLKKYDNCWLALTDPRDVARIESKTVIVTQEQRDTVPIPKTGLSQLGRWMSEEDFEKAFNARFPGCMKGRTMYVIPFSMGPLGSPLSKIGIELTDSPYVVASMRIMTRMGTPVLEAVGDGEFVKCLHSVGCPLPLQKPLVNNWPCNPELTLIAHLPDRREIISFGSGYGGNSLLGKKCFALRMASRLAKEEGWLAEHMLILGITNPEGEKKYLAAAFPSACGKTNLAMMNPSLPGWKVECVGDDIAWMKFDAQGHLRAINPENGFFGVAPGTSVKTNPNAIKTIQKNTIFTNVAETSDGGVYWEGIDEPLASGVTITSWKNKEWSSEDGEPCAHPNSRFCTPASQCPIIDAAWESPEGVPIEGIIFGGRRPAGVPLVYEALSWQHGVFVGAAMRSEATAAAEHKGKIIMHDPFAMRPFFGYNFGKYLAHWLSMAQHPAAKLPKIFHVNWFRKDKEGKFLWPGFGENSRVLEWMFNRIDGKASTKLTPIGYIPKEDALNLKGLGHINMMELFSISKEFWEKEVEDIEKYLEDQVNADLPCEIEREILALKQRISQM
# Assay: Inhibition of human cPEPCK
row,Compound,IC50 [nM]
1,CCCCn1c(=O)n(Cc2ccccc2F)c(=O)c2[nH]c(Cc3ccc(N)cc3)nc21,2560
2,CCCCn1c(=O)n(Cc2ccccc2F)c(=O)c2[nH]c(Cc3ccc(N)cc3N)nc21,5650
3,CCCCn1c(=O)n(Cc2ccccc2F)c(=O)c2[nH]c(Cc3ccc(NC(C)=O)cc3NC(C)=O)nc21,8700
4,CCCCn1c(=O)n(Cc2ccccc2F)c(=O)c2[nH]c(Cc3ccc(NS(=O)(=O)c4c(C)nn(C)c4Cl)cc3)nc21,540
5,Cc1nn(C)cc1S(=O)(=O)Nc1ccc(Cc2nc3c([nH]2)c(=O)n(Cc2ccccc2F)c(=O)n3CC2CC2)cc1,240

# Further lines, results first:
row,IC50 [nM],Compound
1,2110,CCCCn1c(=O)n(Cc2ccccc2F)c(=O)c2[nH]c(Cc3ccc(NC(C)=O)cc3)nc21
2,2300,CCCCn1c(=O)n(Cc2ccccc2F)c(=O)c2[nH]c(Cc3ccc(NC(=O)C(F)(F)F)cc3)nc21
3,1800,O=C(Nc1ccc(Cc2nc3c([nH]2)c(=O)n(Cc2ccccc2F)c(=O)n3CC2CC2)cc1)C(F)(F)F
4,1560,Nc1ccc(Cc2nc3c([nH]2)c(=O)n(Cc2ccccc2F)c(=O)n3CC2CC2)cc1
5,690,CC(=O)Nc1ccc(Cc2nc3c([nH]2)c(=O)n(Cc2ccccc2F)c(=O)n3CC2CC2)cc1
6,2070,CN(C)CC(=O)Nc1ccc(Cc2nc3c([nH]2)c(=O)n(Cc2ccccc2F)c(=O)n3CC2CC2)cc1

# Target: T2, Phosphoenolpyruvate carboxykinase, cytosolic [GTP] (Homo sapiens) (UniProt P35558)
# T2 sequence (whole entry): T1 sequence (P35558 whole entry)
# Assay: Inhibition of human cPEPCK at 1 uM
row,inhibition [%],Compound
1,30,CCCCn1c(=O)n(Cc2ccccc2F)c(=O)c2[nH]c(Cc3ccc(NS(=O)(=O)c4cccs4)cc3)nc21
2,22,CCCCn1c(=O)n(Cc2ccccc2F)c(=O)c2[nH]c(Cc3ccc(NS(=O)(=O)c4ccccc4)cc3)nc21
3,31,CCCCn1c(=O)n(Cc2ccccc2F)c(=O)c2[nH]c(Cc3ccc(NS(=O)(=O)Cc4ccccc4)cc3)nc21
4,19,CCCCn1c(=O)n(Cc2ccccc2F)c(=O)c2[nH]c(Cc3ccc(NS(=O)(=O)c4ccsc4C(=O)OC)cc3)nc21

# Target: T3, Phosphoenolpyruvate carboxykinase, cytosolic [GTP] (Rattus norvegicus, UniProt P07379)
# T3 sequence (P07379 whole entry): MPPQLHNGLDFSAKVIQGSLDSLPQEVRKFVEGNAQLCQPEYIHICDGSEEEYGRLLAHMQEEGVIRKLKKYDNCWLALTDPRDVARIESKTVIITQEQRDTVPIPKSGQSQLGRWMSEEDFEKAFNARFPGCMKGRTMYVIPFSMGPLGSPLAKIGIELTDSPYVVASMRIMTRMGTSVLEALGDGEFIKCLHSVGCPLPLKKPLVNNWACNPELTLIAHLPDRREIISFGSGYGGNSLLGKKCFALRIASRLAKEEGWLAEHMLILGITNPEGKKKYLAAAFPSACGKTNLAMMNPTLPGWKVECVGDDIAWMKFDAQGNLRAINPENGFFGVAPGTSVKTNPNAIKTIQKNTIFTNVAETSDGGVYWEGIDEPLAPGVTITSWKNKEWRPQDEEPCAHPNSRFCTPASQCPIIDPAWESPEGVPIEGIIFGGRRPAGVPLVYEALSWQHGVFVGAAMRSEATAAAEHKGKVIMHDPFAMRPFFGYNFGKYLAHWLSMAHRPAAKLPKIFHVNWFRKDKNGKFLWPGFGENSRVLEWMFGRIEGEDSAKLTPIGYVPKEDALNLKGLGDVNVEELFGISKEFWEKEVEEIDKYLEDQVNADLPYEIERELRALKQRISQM
# Assay: Inhibition of cPEPCK in rat H4IIE cells assessed as effect on glucose production
# Assay type: cell-based
row,Compound,EC50 [nM]
1,CCCCn1c(=O)n(Cc2ccccc2F)c(=O)c2[nH]c(Cc3ccc(NS(=O)(=O)c4c(C)nn(C)c4Cl)cc3)nc21,3970
2,Cc1nc(N)sc1S(=O)(=O)Nc1ccc(Cc2nc3c([nH]2)c(=O)n(Cc2ccccc2F)c(=O)n3CC2CC2)cc1,8200
3,Cc1nn(C)cc1S(=O)(=O)Nc1ccc(Cc2nc3c([nH]2)c(=O)n(Cc2ccccc2F)c(=O)n3CC2CC2)cc1,5570
4,Cc1nn(C)c(Cl)c1S(=O)(=O)Nc1ccc(Cc2nc3c([nH]2)c(=O)n(Cc2ccccc2F)c(=O)n3CC2CC2)cc1,2170

# Now from value to molecule:
row,EC50 [nM],Compound
1,8600,CCCCn1c(=O)n(Cc2ccccc2F)c(=O)c2[nH]c(Cc3ccc(NC(C)=O)cc3)nc21
2,4700,CC(=O)Nc1ccc(Cc2nc3c([nH]2)c(=O)n(Cc2ccccc2F)c(=O)n3CC2CC2)cc1
3,3400,Cc1noc(C)c1S(=O)(=O)Nc1ccc(Cc2nc3c([nH]2)c(=O)n(Cc2ccccc2F)c(=O)n3CC2CC2)cc1
4,8750,Cn1cc(S(=O)(=O)Nc2ccc(Cc3nc4c([nH]3)c(=O)n(Cc3ccccc3F)c(=O)n4CC3CC3)cc2)cn1
5,5500,O=c1c2[nH]c(Cc3ccc(NS(=O)(=O)c4cccnc4)cc3)nc2n(CC2CC2)c(=O)n1Cc1ccccc1F
